Entries after “also recorded” stand apart in the source; their conditions may differ. Like-named read-outs stand apart in the source and are kept apart here.
Assays:
[1] = system: rat corpus cavernosum strips; experiment: Isometric tension of isolated rat corpus cavernosum strips
Protocol: For functional studies in corpus cavernosum strips, the penis was removed by cutting the crura corpora cavernosa at the point of adhesion to the lower pubic bone, and the corpora cavernosa were then dissected free. The penis was submerged immediately in ice-cold (4° C.) PSS. The tunica albuginea was carefully opened from its proximal extremity of the corpus cavernosum towards the penile shaft and the erectile tissue within the corpus cavernosum was microsurgically dissected free. Change in isometric tension of corpus cavernosum strips (0.5×0.5×3 mm) were investigated in a tissue organ bath system (750TOBS, Danish Myotechnology, Aarhus, Denmark). Silk ligatures were applied at both ends of the strip preparations, which were then suspended between two L-formed metal prongs in thermostatically controlled organ baths (5 ml, 37° C.) containing PSS aerated with a mixture of 5% CO2 in air (pH 7.4). The bath fluid was routinely changed every 20 min and replaced with fresh PSS, also kept at 37° C. During an equilibration period of 60 min, tension was adjusted until a mean stable tension of 1.2 mN was obtained, as described earlier.
To test the contractility of the preparations, they were exposed to a potassium physiological saline solution (KPSS) of 125 mM and phenylephrine (10^-6 M), after each contraction acetylcholine was administrated to check endothelium-dependent relaxations.
To investigate the effect of IP2015 on corpus cavernosum strips, the drug (10 9-3×10^-4 M) was administered either in preparations at baseline tension or contracted with phenylephrine (10^-6 M) in the absence or presence of L-NOARG (10 4 M), a NO synthase inhibitor, sildenafil (10^-7 M), a PDE5 inhibitor, a dopamine D1 receptor antagonist, SCH23390, and a dopamine D2 receptor antagonist, clozapine (10^-6 M). The effect of vehicle was also investigated.

[2] = Phase I ascending single oral dose pharmacokinetics in healthy male subjects; type: in vivo, human; conditions: for half-life / Tmax: male, human, plasma
Protocol: The study was a Phase I, randomised, double-blind, placebo-controlled, ascending single oral dose, safety, tolerability, pharmacokinetic (PK) and pharmacodynamics (PD) study of IP2015 in healthy male subjects.
Each subject received one oral dose of IP2015 or matched placebo. The starting dose of IP2015 was 0.01 mg in Cohort 1. The dose level was to be escalated to a maximum of 0.05 mg in Cohort 2 and a maximum of 0.2 mg in Cohort 3. The doses in the remaining five cohorts were to be determined based on the dose escalation criteria. In every cohort, no more than 2 subjects were dosed on the first dosing day (1 active; 1 placebo) such that no more than 1 subject received an active IP2015 dose for the first time at each dose level.
The IP2015 or matched placebo was administered once on the morning of Day 1 as an oral solution in the fasted state. The dose was taken with 240 ml of water at room temperature. Subjects/participants were fasted overnight prior to dosing until 4 hours postdose. Water was allowed ad libitum except for 1 hour before and 1 hour after dosing.
The doses used in each cohort were as follows: • Cohort 1-0.01 mg • Cohort 2-0.05 mg • Cohort 3-0.2 mg • Cohort 4-0.6 mg • Cohort 5-1.8 mg • Cohort 6-5.4 mg • Cohort 7-16.2 mg • Cohort 8-10 mg
The study also evaluated plasma PK concentrations and parameters including but not limited to: area under the plasma concentration vs time curve (AUC), from time zero to the last quantifiable concentration (AUC0-t), AUC from zero to infinity (AUC0-∞), observed maximum plasma concentration (Cmax), time to reach maximum plasma concentration (tmax) and terminal elimination half-life (T½) in healthy male subjects. Blood samples for the determination of plasma concentrations of IP2015 were collected at predose, and 0.25, 0.5, 1, 1.5, 2, 3, 4, 6, 8, 12, 16, 24, 36 and 48 hours postdose.
Safety parameters were listed and summarised using descriptive statistics. Pharmacokinetic parameter estimates were calculated using noncompartmental methods. Pharmacokinetic data were listed for each subject/patient and summarised by descriptive statistics.
Dose proportionality was analysed for Part A with a linear regression model using the logarithm of a PK parameter as responsible variable and the logarithm of the dose as the independent variable. The linear regression model can be expressed as: […]
The above model was applied to the following PK parameters; AUC0-t, AUC0-∞ and Cmax. Based on the linear regression model, the dose proportionality coefficient (slope) and its two-sided 90% confidence interval (CI) were estimated. Dose proportionality was declared if the 90% CI for the slope was completely contained in the following range 16: 1+log (0.5)/log (r), 1+log (2)/log (r), where r is the high dose/low dose.

[3] = 0.2 to 16.2 mg single dose range

SMILES: COc1cc2ccc(OC3CC4CCC(C3)N4)cc2oc1=O (centres unmarked) [IP2015, 7-[(8-azabicyclo[3.2.1]octan-3-yl)oxy]-3-methoxy-chromen-2-one]
- relaxation of corpus cavernosum strips ([1]; added at basal tension, increasing concentrations): concentration-dependently induced relaxation; also recorded: induced concentration-dependent relaxations; also recorded: induces relaxations
- IP2015 relaxation in preparations with and without endothelium ([1]; corpus cavernosum strips, n=5): observed in preparations with endothelium but not in preparations without endothelium
- increase of systemic exposure with dose based on AUC0-t [2, 3]: greater than dose-proportional manner
- increase of systemic exposure with dose based on AUC0-∞ and Cmax [2, 3]: slightly more than dose-proportional manner
- subjects with plasma concentrations below the LLOQ ([2]; healthy males, 0.2 mg): 3/7
- plasma concentrations of IP2015 ([2]; healthy males, single oral 0.01 mg and 0.05 mg): below the LLOQ for all subjects
- half-life ([2]; oral, healthy males, 0.6 mg, calculated for 1/6 subjects, read-out: mean t½ (converted)): 14.5 h
- half-life ([2]; oral, healthy males, 1.8 mg, calculated for 3/6 subjects, read-out: mean t½ (converted)): 16.1 h
- Tmax ([2]; oral, healthy males, across all dose levels, read-out: tmax range): 1 to 6 h
- half-life ([2]; oral, healthy males, range of means across 5.4 mg to 16.2 mg doses, read-out: mean T½): 23.1 to 26.3 h
- Tmax ([2]; healthy males, range of medians across single oral doses 0.2-16.2 mg, read-out: median tmax): 2.25 to 5 h

— US20260216166A1, “COMPOUND FOR TREATMENT OF ERECTILE DYSFUNCTION” (Initiator Pharma A/S, priority 2023, published 2026)
